In patent publication US20170237129A1, “Quaternary Ammonium Halides With Ether Functional Groups For Use As Battery Electrolytes” (Albemarle Corporation, priority 2014, published 2017):

Key:
Type in all cases: physicochemical
[1] = Measurement of free bromine in aqueous phase; settings: stirred 24 hrs, top aqueous phase, wt %
Excerpt: The forward operation of a bromine-containing battery generally involves the conversion of elemental bromine to ionic bromine. The quat/Br2 complex results from an equilibrium reaction in which the Br2 is released from the complex as the concentration of free Br2 in the aqueous electrolyte drops during battery operation. In its fully charged state, the electrolyte solution inevitably contains some degree of uncomplexed bromine. A measure of a quat's ability to complex elemental bromine is the amount of elemental bromine left in solution when the complexation reaction proceeds to equilibrium. Such bromine is referred to as “free bromine.” Measurement of free bromine in aqueous phase is set forth in Example 1.
Two slightly different methods were used to prepare the electrolyte compositions, A) one containing 0.7M quat and B) the other containing 0.8M quat. In composition A, 2.0 moles of bromine was added to an aqueous solution containing 0.5 moles of zinc bromide and 0.7 moles of the quat. The two-phase mixture was stirred for 24 hrs. and then the phases were allowed to settle. The top aqueous phase was sampled for free bromine measurement. In composition B, 1.44 moles of bromine was added to an aqueous solution containing 0.5 moles of zinc bromide, 0.4 moles of zinc chloride and 0.8 moles of the quat. The top aqueous phase obtained after stirring for 24 hrs. was used for free bromine measurement.
A 250-ml Erlenmeyer flask was charged with 50 ml of deionized water and weighed (A). A sample of the clear aqueous phase was passed through glass wool to remove any suspended organic phase and then added to the Erlenmeyer flask. The flask was weighed again (B) and the difference in weight (B-A) was noted as the weight of the sample. About 20 ml of 20% potassium iodide solution followed by about 5 ml of starch solution was added to the flask. The resulting dark mixture was titrated against 0.02N sodium thiosulfate solution. The end-point was the disappearance of purple color. Free bromine (wt %) was calculated in the following manner:
Wt % free Br2=Volume (ml) of sodium Thiosulfate×Normality of Sodium thisosulfate/Sample Weight.

[2] = Cloud point determination; settings: 0.7M quat in 2.5M zinc bromide water solution
Method: By “cloud point” is meant the cloud point of an aqueous solution containing 0.7 M complexing agent and 2.5 M zinc bromide.
A 0.7M quaternary ammonium bromide in 2.5M Zinc Bromide water solution was prepared. • 2. The solution was transferred to a jacketed flask with a stirring bar and temperature monitor. • 3. The solution was warmed to 15° C. above the expected cloud point. If necessary, any moisture or impurities were removed by filtration. • 4. The solution was stirred, with speed adjustment to about 250 rpm, while avoiding the formation of bubbles. • 5. The solution was cooled gradually (cooling rate of about 1° C./5 min). • 6. The sample was inspected carefully for signs of cloudiness, and the temperature at which cloudiness was observed was recorded to the nearest 0.1° C.

[3] = Free bromine in electrolyte with chloroquat or bromoquat (Example 8); settings: 0.84 M zinc bromide, 0.8 M quat, 1.44 M bromine; stirred 24 hrs at 35° C.
Method: Chloride ions are added to the electrolyte in amounts sufficient to reduce the amount of free bromine present and increase the electrolyte conductivity during charging of the cell, Chloride ions in the electrolyte may come from zinc chloride or quaternary ammonium chloride complexing agent. Experiment 1 of Example 8: An aqueous electrolyte system was prepared having 0.84 M zinc bromide, 0.8 M chioroquat (N-methyl, N-butyl pyrrolidinium chloride) and 1.44 M bromine. After the sample was stirred for 24 hrs at 35° C., the amount of free bromine present in the electrolyte was 0.26%. Experiment 2 of Example 8: An aqueous electrolyte system was prepared having 0.84 M zinc bromide, 0.8 M bromoquat (N-methyl, N-butyl pyrrolidinium bromide) and 1.44 M bromine. After the sample was stirred for 24 hrs at 35° C., the amount of free bromine present in the electrolyte was 0.25%.

[4] = 0.7M quat (composition A: 2.0 moles bromine, 0.5 moles zinc bromide, 0.7 moles quat)
[5] = 0.8M quat (composition B: 1.44 moles bromine, 0.5 moles zinc bromide, 0.4 moles zinc chloride, 0.8 moles quat)

| Compound | Free Br2 [1, 4] | Solubility in ZnBr2 Cloud Point [2] | Free Br2 [1, 5] | also measured |
| --- | --- | --- | --- | --- |
| CCC[N+](CC)(CC)CC.[Br-] [Compound 5, triethylpropylammonium bromide] | 0.7M 0.089% | 0.7M, 41.2 C. | – | Free Br2 ([1]; 0.7M quat (composition A: 2.0 moles bromine, 0.5 moles zinc bromide, 0.7 moles quat), listed as compound 5): 0.089% |
| CCCC[N+]1(C)CCCC1.[Br-] [bromoquat, N-methyl, N-butyl pyrrolidinium bromide] | – | – | – | amount of free bromine present in the electrolyte [3]: 0.25% |
| CCC[N+]1(CC)CCCCC1 [Compound 10, EthyPropyl Piperidinium Bromide] | – | 0.7M, 45.8 C. | 0.8M 0.026% | Free Br2 ([1]; 0.8M quat (composition B: 1.44 moles bromine, 0.5 moles zinc bromide, 0.4 moles zinc chloride, 0.8 moles quat), listed as compound 10): 0.026% |
| CC[N+](C)(CC)CCOC.[Br-] [Compound 4, diethylmethyl-(2-methoxyethyl)ammonium bromide] | 0.7M 0.70% | 0.7M, <-10.5 C. | – | – |
| CCCC[N+](C)(C)CCOC.[Br-] [Compound 1, Dimethylbutylether Quat Bromide] | 0.7M 0.28% | 0.7M, 29 C. | – | – |
| CCCC[N+]1(C)CCCC1.[Cl-] [chioroquat, N-methyl, N-butyl pyrrolidinium chloride] | – | – | – | amount of free bromine present in the electrolyte [3]: 0.26% |
| CC[N+]1(CC)CCCCC1.[Br-] [Compound 9, Diethyl Piperidinium Bromide] | – | 0.7M, 11.9 C. | 0.8M 0.26% | Free Br2 ([1]; 0.8M quat (composition B: 1.44 moles bromine, 0.5 moles zinc bromide, 0.4 moles zinc chloride, 0.8 moles quat), listed as compound 9): 0.26% |
| CC[N+](CC)(CC)CCOC.[Br-] [Compound 2, (2-methoxyethyl)-triethylammonium bromide] | 0.7M 0.658% | 0.7M, <-10.5 C. | 0.8M 0.467% | – |
